This assay addresses T1, TLR7/NFKb HEK cells (Homo sapiens, UniProt Q9NYK1).
T1 construct: expressed in transfected cells; host or cells: HEK cells (TLR7/NFKb reporter line)
T1 sequence (Q9NYK1 27-1049): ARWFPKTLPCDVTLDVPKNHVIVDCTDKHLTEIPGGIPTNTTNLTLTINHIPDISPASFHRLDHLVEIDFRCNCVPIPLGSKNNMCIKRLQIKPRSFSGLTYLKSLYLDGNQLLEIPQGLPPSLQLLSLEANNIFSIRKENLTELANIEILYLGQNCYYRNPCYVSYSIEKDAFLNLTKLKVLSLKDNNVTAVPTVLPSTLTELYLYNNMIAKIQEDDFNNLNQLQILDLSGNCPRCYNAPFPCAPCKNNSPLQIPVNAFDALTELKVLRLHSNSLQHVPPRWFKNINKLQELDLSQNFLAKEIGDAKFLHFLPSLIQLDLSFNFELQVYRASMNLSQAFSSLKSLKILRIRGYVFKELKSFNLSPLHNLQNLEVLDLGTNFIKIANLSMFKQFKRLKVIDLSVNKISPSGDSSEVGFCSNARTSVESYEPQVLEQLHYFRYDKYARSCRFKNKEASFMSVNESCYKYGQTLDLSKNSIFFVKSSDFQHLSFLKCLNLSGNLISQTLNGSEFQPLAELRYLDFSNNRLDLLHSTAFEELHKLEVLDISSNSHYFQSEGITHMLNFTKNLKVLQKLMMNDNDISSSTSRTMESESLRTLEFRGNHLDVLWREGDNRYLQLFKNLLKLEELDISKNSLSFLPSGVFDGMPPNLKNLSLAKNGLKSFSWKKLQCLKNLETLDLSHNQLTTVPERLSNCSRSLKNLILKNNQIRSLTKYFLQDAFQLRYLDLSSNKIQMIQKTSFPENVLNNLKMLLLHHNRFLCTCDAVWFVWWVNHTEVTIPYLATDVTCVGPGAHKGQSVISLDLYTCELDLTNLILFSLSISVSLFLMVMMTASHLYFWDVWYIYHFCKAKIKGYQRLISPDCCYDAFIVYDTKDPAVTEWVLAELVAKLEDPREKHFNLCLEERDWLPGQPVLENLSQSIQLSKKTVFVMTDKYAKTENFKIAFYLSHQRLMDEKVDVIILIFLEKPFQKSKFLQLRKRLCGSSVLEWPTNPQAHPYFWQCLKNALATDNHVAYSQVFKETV
The assay can be described thus: HEK Cell Assay (TLR7/NFKb reporter, Steady-Glo luciferase readout). The format is cell-based. The conditions noted are these: 30 min compound preincubation, then R*48 agonist for 5 hours, read-out: Potency. The gist of the method: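 Steady-Glo luminescence after 5 h stimulation with R*48 agonist, following 30 min compound preincubation. Assay run in HEK cells carrying a TLR7/NFKb luciferase reporter, plated at 5000 cells/well and grown 24 h at 37° C (10% CO2) before treatment.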

Where a name gives a salt, the structure may show the parent alone.

Regarding `CCN(CC)CCNCC1CCN(c2cc(C)nc3cc(F)ccc23)CC1` [Compound 386, N,N-Diethyl-N′-[1-(7-fluoro-2-methyl-quinolin-4-yl)-piperidin-4-ylmethyl]-ethane-1,2-diamine], the IC50 is 1000 to 10000 nM.

Consider `CN1CCN(CC(=O)N[C@@H]2C[C@H](F)CN(c3ccc(C#N)c4nccnc34)C2)CC1` [Compound 502, N-[(3R,5S)-1-(8-Cyano-quinoxalin-5-yl)-5-fluoro-piperidin-3-yl]-2-(4-methyl-piperazin-1-yl)-acetamide], for which the IC50 fell in the range of 1000 to 10000 nM.

Regarding `C[C@H]1C[C@@H](NC(=O)CN2CC(N)C2)CN(c2ccc(C#N)c3nccnc23)C1` [Compound 356, 2-(3-aminoazetidin-1-yl)-N-[(3R,5S)-1-(8-cyanoquinoxalin-5-yl)-5-methylpiperidin-3-yl]acetamide], the IC50 was less than 1000 nM.

On to `C[C@H]1C[C@@H](NC(=O)C(C)(C)C2CCN(C)CC2)CN(c2ccc(C(F)(F)F)c3ncccc23)C1` [Compound 351, 2-methyl-N-[(3R,5S)-5-methyl-1-[8-(trifluoromethyl)quinolin-5-yl]piperidin-3-yl]-2-(1-methylpiperidin-4-yl)propanamide], for which the IC50 is less than 1000 nM.

In the case of `CC(C)[C@H](O)C(=O)N[C@@H]1C[C@H](C)CN(c2ccc(C(F)F)c3ncccc23)C1` [Compound 204, (2S)—N-[(3R,5S)-1-[8-(difluoromethyl)quinolin-5-yl]-5-methylpiperidin-3-yl]-2-hydroxy-3-methylbutanamide], the IC50 is less than 1000 nM.

As to `N#Cc1ccc(N2C[C@@H](NC(=O)CC(F)(F)F)C[C@@H](C(F)(F)F)C2)c2cccnc12` (relative stereo) [Compound 428, cis-N-[1-(8-Cyano-quinolin-5-yl)-5-trifluoromethyl-piperidin-3-yl]-3,3,3-trifluoro-propionamide], the IC50 was less than 1000 nM.

Consider `N#Cc1ccc(N2C[C@@H](N)C[C@@H](F)C2)c2nccnc12` [Compound 501, 8-((3S,5R)-3-Amino-5-fluoro-piperidin-1-yl)-quinoxaline-5-carbonitrile hydrochloride], for which the IC50 is greater than 10000 nM.

In the case of `CCN(CC)CCNCC1CCN(c2cc(C)nc3ccc(F)cc23)CC1` [Compound 374, N,N-diethyl-N′-[1-(6-fluoro-2-methyl-quinolin-4-yl)-piperidin-4-ylmethyl]-ethane-1,2-diamine], the IC50 lay in the range of 1000 to 10000 nM.

Regarding `C[C@H]1C[C@@H](NC(=O)CO)CN(c2ccc(C(F)(F)F)c3nccnc23)C1` [Compound 250, 2-hydroxy-N-[(3R,5S)-5-methyl-1-[8-(trifluoromethyl)quinoxalin-5-yl]piperidin-3-yl]acetamide], the IC50 is less than 1000 nM.

With `C[C@@H]1C[C@H](O)CN(c2ccc(C(F)(F)F)c3ncccc23)C1` (racemic) [Compound 461, cis-5-Methyl-1-(8-trifluoromethyl-quinolin-5-yl)-piperidin-3-ol], the IC50 is less than 1000 nM.

With `C[C@@H]1CN(c2ccnc3nccnc23)C[C@H](C(=O)NC2CCN(C)CC2)O1` [Compound 65, (2R,6R)-6-methyl-N-(1-methylpiperidin-4-yl)-4-(pyrido[2,3-b]pyrazin-8-yl)morpholine-2-carboxamide], the IC50 is less than 1000 nM.

As to `C[C@H]1C[C@@H](NC(=O)CN(C)CCO)CN(c2ccnc3nccnc23)C1` [Compound 145, 2-[(2-hydroxyethyl)(methyl)amino]-N-[(3R,5S)-5-methyl-1-[pyrido[2,3-b]pyrazin-8-yl]piperidin-3-yl]acetamide], the IC50 is greater than 10000 nM.

As to `CNC(=O)[C@@H]1C[C@@H](C)CN(c2ccc(C#N)c3nccnc23)C1` (relative stereo) [Compound 542, trans-1-(8-Cyano-quinoxalin-5-yl)-5-methyl-piperidine-3-carboxylic acid methylamide], the IC50 lay within 1000 to 10000 nM.

Consider `C[C@@H]1C[C@H](C(=O)NCC2CCN(C)CC2)CN(c2ccc(C(F)(F)F)c3ncccc23)C1` (relative stereo) [Compound 547, cis-5-Methyl-1-(8-trifluoromethyl-quinolin-5-yl)-piperidine-3-carboxylic Acid (1-methyl-piperidin-4-ylmethyl)-amide], for which the IC50 is less than 1000 nM.

As to `COCCN[C@@H]1C[C@H](C)CN(c2ccc(C(F)F)c3ncccc23)C1` [Compound 206, (3R,5S)-1-[8-(difluoromethyl)quinolin-5-yl]-N-(2-methoxyethyl)-5-methylpiperidin-3-amine], the IC50 was less than 1000 nM.

Take `C[C@@H]1CN(c2ccc(C#N)c3nccnc23)C[C@H](CN2CCC(N3CCOCC3)CC2)O1` [Compound 467, 8-[(2R,6S)-2-methyl-6-{[4-(morpholin-4-yl)piperidin-1-yl]methyl}morpholin-4-yl]quinoxaline-5-carbonitrile]: the IC50 is less than 1000 nM.

On to `C[C@H]1C[C@@H](NCC#N)CN(c2ccc(C#N)c3nccnc23)C1` [Compound 38, 8-((3R,5S)-3-(cyanomethylamino)-5-methylpiperidin-1-yl)quinoxaline-5-carbonitrile], for which the IC50 was less than 1000 nM.

For `C[C@H]1C[C@@H](O)CN(c2ccc(C#N)c3nccnc23)C1` [Compound 81, 8-[(3R,5S)-3-hydroxy-5-methylpiperidin-1-yl]quinoxaline-5-carbonitrile], the IC50 was less than 1000 nM.

Consider `C[C@H]1C[C@@H](NC(=O)C2CCCN2C)CN(c2ccnc3nccnc23)C1` (stereo partly drawn) [Compound 172, Methyl-N-[(3R,5S)-5-methyl-1-[pyrido[2,3-b]pyrazin-8-yl]piperidin-3-yl]pyrrolidine-2-carboxamide], for which the IC50 lay in the range of 1000 to 10000 nM.

`CCN(C)[C@@H](C)C(=O)N[C@@H]1C[C@H](C)CN(c2ccnc3nccnc23)C1` [Compound 101, (2S)-2-[ethyl(methyl)amino]-N-[(3R,5S)-5-methyl-1-[pyrido[2,3-b]pyrazin-8-yl]piperidin-3-yl]propanamide]: the IC50 fell in the range of 1000 to 10000 nM.

For `CC(C)C(C)C(=O)N[C@@H]1C[C@H](C)CN(c2ccc(C#N)c3nccnc23)C1` (stereo partly drawn) [Compound 167, N-[(3R,5S)-1-(8-cyanoquinoxalin-5-yl)-5-methylpiperidin-3-yl]-2,3-dimethylbutanamide], the IC50 was less than 1000 nM.

Regarding `C[C@@H]1CN(c2ccnc3nccnc23)C[C@H](CN2CCNCC2)O1` [Compound 48, (2R,6S)-2-methyl-6-(piperazin-1-ylmethyl)-4-(pyrido[2,3-b]pyrazin-8-yl)morpholine], the IC50 was 1000 to 10000 nM.

For `CCN(CC)CCC(=O)NC1CCN(c2ccnc3nccnc23)CC1` [Compound 396, 3-Diethylamino-N-(1-pyrido[2,3-b]pyrazin-8-yl-piperidin-4-yl)-propionamide], the IC50 was greater than 10000 nM.

Take `Cc1c(F)cc(N2C[C@@H](C)C[C@@H](N)C2)c2cccnc12` [Compound 488, (3R,5S)-1-(7-Fluoro-8-methyl-quinolin-5-yl)-5-methyl-piperidin-3-ylamine hydrochloride]: the IC50 was less than 1000 nM.

Regarding `OC1CCC(NC2CC(C(F)(F)F)CN(c3ccnc4nccnc34)C2)CC1` (single isomer, unassigned) [Compound 93, cis,cis-4-((1-(pyrido[2,3-b]pyrazin-8-yl)-5-(trifluoromethyl)piperidin-3-yl)amino)cyclohexanol], the IC50 was greater than 10000 nM.

Take `C[C@H]1C[C@@H](N)CN(c2ccc(C(F)(F)F)c3ncccc23)C1` [Compound 66, (3R,5S)-5-methyl-1-[8-(trifluoromethyl)quinolin-5-yl]piperidin-3-amine]: the IC50 is less than 1000 nM.

For `C[C@H]1C[C@@H](NC2CCC(O)CC2)CN(c2ccc(C#N)c3nccnc23)C1` (single isomer, unassigned) [Compound 135], the IC50 is less than 1000 nM.

With `CC1CCCC(C)N1CCNC(=O)C1CCN(c2ccc(C#N)c3ncccc23)CC1` (stereo not shown) [Compound 414, 1-(8-Cyano-quinolin-5-yl)-piperidine-4-carboxylic Acid [2-(2,6-dimethyl-piperidin-1-yl)-ethyl]-amide], the IC50 was less than 1000 nM.

As to `Fc1ccc2nccc(N3CCC(CNCCN4CCCCC4)CC3)c2c1` [Compound 378, [1-(6-Fluoro-quinolin-4-yl)-piperidin-4-ylmethyl]-(2-piperidin-1-yl-ethyl)-amine], the IC50 was 1000 to 10000 nM.

Take `COC(C)C(=O)N[C@@H]1C[C@H](C)CN(c2ccc(C#N)c3nccnc23)C1` (single isomer, unassigned) [Compound 158]: the IC50 lay in the range of 1000 to 10000 nM.

Consider `C[C@@H]1CN(c2ccc(C#N)c3nccnc23)C[C@H](C)O1` [Compound 44, 8-((2R,6S)-2,6-dimethylmorpholino)quinoxaline-5-carbonitrile], for which the IC50 is less than 1000 nM.

The record behind these values is patent US10947213B1 (Merck Patent GmbH, priority 2015, dated 2021).
